ChEMBL document CHEMBL1122575, “Dependence of beta-lactamase stability on substructures within beta-lactam antibiotics” (J Med Chem, 1984)
In brackets after ≈: the same amount, converted by molar mass. One block for each compound: values may come before it.

Assays:
[1] = Relative Vmax was reported; assay type: ADME
Staphylococcus aureus = test: Compound was evaluated for the antibacterial activity against Staphylococcus aureus with the strain beta-Lactamase-positive (LAC+)/beta-Lactamase-negative (LAC-); 2/1; assay type: functional
Escherichia coli [2] = test: Compound was evaluated for the antibacterial activity against Escherichia coli (RTEM+organism). 10E6 colony forming units are observed; assay type: functional
[3] = Relative hydrolysis rate (RHR) was evaluated against RTEM enzyme; assay type: ADME
Klebsiella aerogenes [4] = test: Compound was evaluated for the antibacterial activity against Klebsiella aerogenes with strain K1-; 0.8/0.8; assay type: functional
Klebsiella aerogenes [5] = test: Compound was evaluated for the antibacterial activity against Klebsiella aerogenes with strain K1; 100/>100; assay type: functional
Escherichia coli [6] = test: cCompound was evaluated for the antibacterial activity against Escherichia coli (RTEM+ organism); 0.4/0.2; assay type: functional
Escherichia coli [7] = test: Compound was evaluated for the antibacterial activity against Escherichia coli (RTEM- organism); 0.1/0.4; assay type: functional
Escherichia coli [8] = test: Compound was evaluated for the antibacterial activity against Escherichia coli (RTEM+organism) at 10e4/10e6 colony forming units; 0.8/3.1; assay type: functional
Providencia rettgeri = test: Compound was evaluated for the antibacterial activity against Providencia rettgeri with the strain beta-Lactamase-negative (LAC-); assay type: functional
Escherichia coli [9] = test: Compound was evaluated for the antibacterial activity against Escherichia coli (RTEM+organism). 10e4/10e6 colony forming units are observed; 3.1/25; assay type: functional
Escherichia coli [10] = test: Relative hydrolysis rate (RHR) was evaluated against Escherichia coli with the strain RTEM; assay type: ADME, organism-based
Klebsiella aerogenes [11] = test: Compound was evaluated for the antibacterial activity against Klebsiella aerogenes with strain K1+ at 10e4/10e6 cfu; 6.3/>100; assay type: functional
Escherichia coli [12] = test: Compound was evaluated for the antibacterial activity against Escherichia coli (RTEM-organism) at 10e4/10e6 cfu; 0.2/0.2; assay type: functional
Klebsiella aerogenes [13] = test: Compound was evaluated for the antibacterial activity against Klebsiella aerogenes with strain K1- at 10e4/10e6 cfu; <0.05/0.1; assay type: functional
Escherichia coli [14] = test: Compound was evaluated for the antibacterial activity against Escherichia coli (RTEM+organism) at 10e4/10e6 cfu; 0.1/0.2; assay type: functional
Escherichia coli [15] = test: Compound was evaluated for the antibacterial activity against Escherichia coli (RTEM+organism) at 10e4/10e6 colony forming units; 25/100; assay type: functional
Escherichia coli [16] = test: cEscherichia coli with strain NIHJ (beta-Lactamase-negative (LAC-)); assay type: functional

SMILES: COc1cccc(OC)c1C(=O)N[C@@H]1C(=O)N2C1SC(C)(C)C2C(=O)O (some centres not stated)
- RVmax [1]: 0.04
- MIC (Staphylococcus aureus): 2 µg/mL (≈ 5.26 µM)

- MIC (Escherichia coli [2]): 1.6 µg/mL (≈ 3.39 µM)
- RHR [3]: 160
SMILES: CO/N=C(\C(=O)N[C@@H]1C(=O)N2C(C(=O)O)=C(COC(C)=O)C[S@@+]([O-])C12)c1csc(N)n1 (some centres not stated)

- MIC (Klebsiella aerogenes [4]): 0.8 µg/mL
- MIC (Klebsiella aerogenes [5]): > 100 µg/mL
- MIC (Escherichia coli [6]): 0.4 µg/mL
- MIC (Escherichia coli [7]): 0.1 µg/mL
SMILES: C#C[C@@H]1[C@H](NC(=O)/C(=N/OC)c2csc(N)n2)C(=O)N1S(=O)(=O)[O-].[K+]

- MIC (Escherichia coli [8]): 0.8 µg/mL
- RHR [3]: 2.3
SMILES: CC(C)(O/N=C(\C(=O)N[C@H]1CN(S(=O)(=O)[O-])C1=O)c1csc(N)n1)C(=O)[O-].[K+].[K+]

- MIC (Providencia rettgeri): < 0.05 µg/mL
- MIC (Escherichia coli [9]): 3.1 µg/mL
- RHR (Escherichia coli [10]): 106
- RHR [3]: 12
SMILES: CO/N=C(\C(=O)N[C@H]1CN(S(=O)(=O)[O-])C1=O)c1csc(N)n1.[K+]

- MIC (Klebsiella aerogenes [11]): 6.3 µg/mL
- MIC (Escherichia coli [12]): 0.2 µg/mL
- MIC (Klebsiella aerogenes [13]): < 0.05 µg/mL
- MIC (Escherichia coli [14]): 0.1 µg/mL
SMILES: C=C[C@@H]1[C@H](NC(=O)/C(=N/OC)c2csc(N)n2)C(=O)N1S(=O)(=O)[O-].[K+]

- MIC (Escherichia coli [15]): 25 µg/mL
- RHR [3]: 7
SMILES: CC(C)O/N=C(\C(=O)N[C@H]1CN(S(=O)(=O)[O-])C1=O)c1csc(N)n1.[K+]

- MIC (Escherichia coli [16]): 3.13 µg/mL (≈ 6.18 µM)
- RHR [3]: 0.96
SMILES: Cn1nnnc1SCC1=C(C(=O)O)N2C(=O)C(NC(=O)C(C(=O)O)c3ccc(O)cc3)C2SC1 (configuration not stated)
